Reference: patent US20180327367A1, “MACROCYCLIC BROAD SPECTRUM ANTIBIOTICS” (priority 2015, published 2018)
pIC50: −log10 of the molar value. Converted amounts (≈) assume the structure as drawn. Read-outs that look alike come from different tables or passages of the source.

Columns and labels:
[1] = system: Methicillin Resistant Staphylococcus aureus strain USA 300, NRS384; assay: Minimum inhibitory concentration, broth micro-dilution (CLSI), S. aureus; type: cell-based; conditions: Staphylococcus aureus, MRSA / NRS 384 / USA300, 22 h, 35° C., 22 hours
Method in brief: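 Ten-point 2-fold series began at 4 μg/mL in protocol 2 and 0.5 μg/mL in protocol 3, in cation-adjusted MHB plus 0.002% Tween-80. Bacteria added to OD600 0.0005 final and incubated at 35° C for 22 hours per CLSI microdilution.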

[2] = system: Escherichia coli MC4100 harboring the IMP4213 (E. coli IMP); assay: microbe, parasite or virus in culture; type: cell-based; conditions: Escherichia coli, 22 h, read-out: MIC (μg/mL) E. coli IMP, E. coli MC4100 IMP4213, increased outer-membrane permeability; 35° C., 22 hours
Method in brief: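 Colonies grown 20 hours at 35° C were suspended in cation-adjusted Mueller Hinton Broth with 0.002% Tween-80. Cells were then added to 2-fold compound dilutions starting at 4 or 0.5 μg/mL, at OD600 0.0005.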

[3] = system: Escherichia coli ATCC 25922; assay: Minimum inhibitory concentration, broth micro-dilution (CLSI), E. coli; type: cell-based; conditions: Escherichia coli, ATCC25922, 22 h, 35° C., 22 hours
[4] = target: T1, SpsB (Staphylococcus aureus signal peptidase) (Staphylococcus aureus, UniProt P0A070); assay: cell-based; type: biochemical; conditions: SpsB IC50, whole-cell S. aureus (USA300 background, overexpressing SpsB) as SpsB source; fluorogenic peptide substrate, kinetic read 30 min
T1 construct: This assay uses a suspension of Staphylococcus aureus cells as a source of SpsB instead of recombinant SpsB protein; endogenous in cells; host or cells: S. aureus, USA300 background, overexpressing SpsB (whole-cell suspension from frozen pellets)
Method in brief: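 Whole S. aureus cells (USA300, overexpressing SpsB) in PBS with MgCl2, CaCl2 and 0.1% Tween-80 served as enzyme source, mixed with 20 μM stock of (Dabcyl)βAla-KPAKAAE(Edans) substrate before use. Fluorescence (ex 340/em 490 nm) read kinetically over 30 min. IC50 from reaction rate versus 11-point inhibitor concentration.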

[5] = MRSA USA 300 NRS384, read-out: MIC (μg/mL) S. aureus
[6] = E. coli ATCC 25922, read-out: MIC (μg/mL) E. coli
[7] = read-out: MIC (μg/mL) S. aureus, MRSA USA 300 NRS384
[8] = read-out: MIC (μg/mL) E. coli, E. coli ATCC 25922

T1 sequence (P0A070 whole entry): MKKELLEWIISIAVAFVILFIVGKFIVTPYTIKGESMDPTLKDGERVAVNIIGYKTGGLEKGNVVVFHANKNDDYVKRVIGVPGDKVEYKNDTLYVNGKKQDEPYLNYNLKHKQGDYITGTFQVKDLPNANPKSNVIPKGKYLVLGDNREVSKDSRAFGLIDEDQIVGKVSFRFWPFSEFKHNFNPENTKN

| SMILES | MIC [1, 5] [µg/mL] | MIC [2] [µg/mL] | MIC [3, 6] [µg/mL] | pIC50 [4] | MIC [1, 7] [µg/mL] | MIC [3, 8] [µg/mL] |
| --- | --- | --- | --- | --- | --- | --- |
| CCCCCCCCCCCC(=O)N[C@@H](CCC(N)=O)C(=O)N(C)[C@@H]1C(=O)N[C@@H](C)C(=O)N[C@H](C(=O)NCC#N)Cc2ccc(OCCN)c(c2)-c2cc1ccc2OCCN [Compound 244] | 0.13 (≈ 0.153 µM) | 0.19 (≈ 0.224 µM) | 48 (≈ 56.6 µM) | 9.00 | – | – |
| CCCC#Cc1ccc(C(=O)N[C@@H](CCN)C(=O)N(C)[C@@H]2C(=O)N[C@@H](C)C(=O)N[C@H](C(=O)NCC#N)Cc3ccc(OCCN)c(c3)-c3cc2ccc3OCCN)c(C)c1 [Compound 307] | 0.25 (≈ 0.304 µM) | 0.031 (≈ 0.0377 µM) | 0.88 (≈ 1.07 µM) | 8.46 | – | – |
| CCCCCCCCCCNCCC(=O)N[C@@H](CCCCN)C(=O)N(C)[C@@H]1C(=O)N[C@@H](C)C(=O)N[C@H](C(=O)NCC#N)Cc2ccc(OCCN)c(c2)-c2cc1ccc2OCCN [Compound 101] | 0.094 (≈ 0.107 µM) | 1.7 (≈ 1.94 µM) | 48 (≈ 54.7 µM) | 9.14 | – | – |
| Cc1cc(C#CC(C)C)ccc1C(=O)N[C@@H](CCN)C(=O)N(C)[C@@H]1C(=O)N[C@@H](C)C(=O)N[C@H](C(=O)NCC#N)Cc2ccc(OCCN)c(c2)-c2cc1ccc2OCCN [Compound 309] | 0.19 (≈ 0.231 µM) | 0.02 (≈ 0.0243 µM) | 1.1 (≈ 1.34 µM) | 9.00 | – | – |
| Cc1nc(-c2ccc(C(F)(F)F)cc2)ncc1C(=O)N[C@@H](CCN)C(=O)N(C)[C@@H]1C(=O)N[C@@H](C)C(=O)N[C@H](C(=O)NCC#N)Cc2ccc(OCCN)c(c2)-c2cc1ccc2OCCN [Compound 171] | 0.094 (≈ 0.104 µM) | 0.0078 (≈ 0.00865 µM) | 0.5 (≈ 0.554 µM) | 9.14 | – | – |
| CCCCCCCC(F)(F)c1ccc(C(=O)N[C@@H](CCN)C(=O)N(C)[C@@H]2C(=O)N[C@@H](C)C(=O)N[C@H](C(=O)NCC#N)Cc3ccc(OCCN)c(c3)-c3cc2ccc3OCCN)c(Cl)c1 [Compound 412] | – | 0.012 (≈ 0.013 µM) | – | 9.22 | 0.031 (≈ 0.0335 µM) | 0.13 (≈ 0.141 µM) |
| CCCCCCCCCC(=O)N[C@H](C)C(=O)NCC(=O)N[C@@H](CCN)C(=O)N(C)[C@@H]1C(=O)N[C@@H](C)C(=O)N[C@H](C(=O)NCC#N)Cc2ccc(OCCN)c(c2)-c2cc1ccc2OCCN [Compound 366] | – | 0.38 (≈ 0.413 µM) | – | 9.19 | 0.25 (≈ 0.272 µM) | 48 (≈ 52.2 µM) |
| CCCCCCCCCCCCC(=O)N[C@@H](CCN)C(=O)N(C)[C@@H]1C(=O)N[C@@H](C)C(=O)N[C@H](C(=O)NCC#N)Cc2ccc(OCCN)c(c2)-c2cc1ccc2OCCN [Compound 102] | 0.023 (≈ 0.0276 µM) | 0.0078 (≈ 0.00935 µM) | 0.25 (≈ 0.3 µM) | 9.28 | – | – |
| CCCCCCc1ccc(-c2ncc(C(=O)N[C@@H](CCN)C(=O)N(C)[C@@H]3C(=O)N[C@@H](C)C(=O)N[C@H](C(=O)NCC#N)Cc4ccc(OCCN)c(c4)-c4cc3ccc4OCCN)c(C)n2)cc1 [Compound 159] | 0.063 (≈ 0.0686 µM) | < 0.0039 | 0.13 (≈ 0.142 µM) | 9.09 | – | – |
| CCCCc1ccc(/C=C/C(=O)N[C@@H](CCN)C(=O)N(C)[C@@H]2C(=O)N[C@@H](C)C(=O)N[C@H](C(=O)NCC#N)Cc3ccc(OCCN)c(c3)-c3cc2ccc3OCCN)cc1 [Compound 428] | 0.094 (≈ 0.114 µM) | 0.023 (≈ 0.0279 µM) | 1 (≈ 1.21 µM) | 8.92 | – | – |
| CCCCCCCc1cc(C)c(C(=O)N[C@@H](CCN)C(=O)N(C)[C@@H]2C(=O)N[C@@H](C)C(=O)N[C@H](C(=O)NCC#N)Cc3ccc(OCCN)c(c3)-c3cc2ccc3OCCN)c(Cl)c1 [Compound 205] | 0.063 (≈ 0.0709 µM) | 0.016 (≈ 0.018 µM) | 0.25 (≈ 0.281 µM) | 9.07 | – | – |
| CCCCCCCC(=O)N[C@@H](CCN)C(=O)N(C)[C@@H]1C(=O)N[C@@H](C)C(=O)N[C@H](C(=O)NCC#N)Cc2ccc(OCCN)c(c2)-c2cc1ccc2OCCN [Compound 107] | 1 (≈ 1.31 µM) | 0.38 (≈ 0.497 µM) | 32 (≈ 41.9 µM) | 8.40 | – | – |
| C[C@@H]1NC(=O)[C@@H](N(C)C(=O)[C@H](CCN)NC(=O)c2ccc(C#Cc3ccccc3)cc2)c2ccc(OCCN)c(c2)-c2cc(ccc2OCCN)C[C@@H](C(=O)NCC#N)NC1=O [Compound 120] | – | 0.016 (≈ 0.019 µM) | – | 9.00 | 0.094 (≈ 0.112 µM) | 0.44 (≈ 0.523 µM) |
| CCCCCCc1ccc(NC(=O)N[C@@H](CCN)C(=O)N(C)[C@@H]2C(=O)N[C@@H](C)C(=O)N[C@H](C(=O)NCC#N)Cc3ccc(OCCN)c(c3)-c3cc2ccc3OCCN)c(C)c1 [Compound 404] | – | 0.047 (≈ 0.055 µM) | – | 9.06 | 0.063 (≈ 0.0737 µM) | 2 (≈ 2.34 µM) |
| CCCCCCCCCCCCCC(=O)N[C@@H](CCN)C(=O)N(C)[C@@H]1C(=O)N[C@@H](C)C(=O)N[C@H](C(=O)NCC#N)Cc2ccc(OCCN)c(c2)-c2cc1ccc2OCCO [Compound 329] | 0.063 (≈ 0.0742 µM) | 0.0078 (≈ 0.00919 µM) | 0.5 (≈ 0.589 µM) | 9.15 | – | – |
| Cc1cc(-c2ccc(CC(C)C)cc2)cnc1C(=O)N[C@@H](CCN)C(=O)N(C)[C@@H]1C(=O)N[C@@H](C)C(=O)N[C@H](C(=O)NCC#N)Cc2ccc(OCCN)c(c2)-c2cc1ccc2OCCN [Compound 168] | 0.063 (≈ 0.0709 µM) | 0.031 (≈ 0.0349 µM) | 0.75 (≈ 0.844 µM) | 9.10 | – | – |
| CCCCCCSc1ccc(C(=O)N[C@@H](CCN)C(=O)N(C)[C@@H]2C(=O)N[C@@H](C)C(=O)N[C@H](C(=O)NCC#N)Cc3ccc(OCCN)c(c3)-c3cc2ccc3OCCN)c(C)c1 [Compound 391] | 0.047 (≈ 0.0539 µM) | 0.016 (≈ 0.0183 µM) | 0.5 (≈ 0.573 µM) | 9.00 | – | – |
| Cc1cc(OCCC(C)C)ccc1C(=O)N[C@@H](CCN)C(=O)N(C)[C@@H]1C(=O)N[C@@H](C)C(=O)N[C@H](C(=O)NCC#N)Cc2ccc(OCCN)c(c2)-c2cc1ccc2OCCN [Compound 274] | 0.13 (≈ 0.154 µM) | 0.02 (≈ 0.0238 µM) | 1.3 (≈ 1.54 µM) | 9.10 | – | – |
| Cc1cc(-c2ccccc2)ccc1C(=O)N[C@@H](CCN)C(=O)N(C)[C@@H]1C(=O)N[C@@H](C)C(=O)N[C@H](C(=O)NCC#N)Cc2ccc(OCCN)c(c2)-c2cc1ccc2OCCN [Compound 149] | 0.19 (≈ 0.228 µM) | 0.023 (≈ 0.0276 µM) | 3 (≈ 3.61 µM) | 9.10 | – | – |
| CCCCCCCCCCCCCC(=O)N[C@@H](CN)C(=O)N(C)[C@@H]1C(=O)N[C@@H](C)C(=O)N[C@H](C(=O)N[C@@H](C)C#N)Cc2ccc(OCCN)c(c2)-c2cc1ccc2OCCN [Compound 342] | 0.19 (≈ 0.224 µM) | 0.063 (≈ 0.0743 µM) | 0.5 (≈ 0.59 µM) | 8.89 | – | – |
